These results are taken from the supplement of paper PMC10307832.

Common to all, as to assay: relative viability (nuclei count vs DMSO), 5 days (fraction); higher = more cells survive
Compound in experiment [1]: CN1CCN(CC1)C2=CC(=C(C=C2)NC3=NC=C4C(=N3)N(C5=CC=CC=C5C(=O)N4C)C)OC [XMD8-85] + C[C@@H](Oc1cc(-c2cnn(C3CCNCC3)c2)cnc1N)c1c(Cl)ccc(F)c1Cl [Crizotinib] (partner 1 µM)
The method, boiled down: (§1)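 One day after seeding in 1536-well plates, lung cancer cell lines were dosed by pin tool. Dosing was either single-drug or a fixed anchor-drug dose plus five library-drug doses (not always all listed) in √10 steps. After 5 days, nuclei were stained in one fix-and-stain step and counted on 4× images, and relative viability is the nuclei count of treated wells over that of vehicle wells, given as the median of duplicate plates.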

Compound in experiment [2]: CN1CCN(CC1)C2=CC(=C(C=C2)NC3=NC=C4C(=N3)N(C5=CC=CC=C5C(=O)N4C)C)OC [XMD8-85] + CCNC(=O)c1noc(-c2cc(C(C)C)c(O)cc2O)c1-c1ccc(CN2CCOCC2)cc1 [Luminespib] (partner 0.01 µM)
The method, boiled down: as §1

Compound in experiment [3]: CN1CCN(CC1)C2=CC(=C(C=C2)NC3=NC=C4C(=N3)N(C5=CC=CC=C5C(=O)N4C)C)OC [XMD8-85] + Nc1nc2[nH]cc(CCc3ccc(C(=O)N[C@@H](CCC(=O)O)C(=O)O)cc3)c2c(=O)[nH]1 [Pemetrexed] (partner 0.2 µM)
The method, boiled down: as §1

Compound in experiment [4]: O=C(O)C(Cc1ccccc1[N+](=O)[O-])=NNc1nc(-c2ccc(Cl)c(Cl)c2)cs1 (mixture of isomers) [4EGI-1] + COc1cccc2cc(-c3nc([C@H]4CC[C@H](C(=O)O)CC4)n4ncnc(N)c34)[nH]c12 [OSI-027] (partner 0.5 µM)
Put shortly: as §1

With IA-LM, the relative viability in experiment [1] (first compound 0.08 µM) was determined as 0.678; in experiment [1] (first compound 0.253 µM), 0.889; in experiment [1] (first compound 0.8 µM), 0.91; in experiment [1] (first compound 8 µM) it was 0.127.

Consider SK-LU-1, for which the relative viability in experiment [2] (first compound 0.08 µM) came to 0.193; in experiment [2] (first compound 0.253 µM), 0.207; in experiment [2] (first compound 0.8 µM), 0.207; in experiment [2] (first compound 2.53 µM), 0.191; in experiment [2] (first compound 8 µM), 0.165; in experiment [1] (first compound 0.08 µM), 0.568. Moreover, the relative viability in experiment [1] (first compound 0.253 µM) was determined as 0.892; in experiment [1] (first compound 0.8 µM), 1.07; in experiment [1] (first compound 2.53 µM) it was 1.12; in experiment [1] (first compound 8 µM) it was 0.653; in experiment [3] (first compound 0.08 µM), 0.973; in experiment [3] (first compound 0.253 µM), 0.916. Further, the relative viability in experiment [3] (first compound 0.8 µM) is 0.966; in experiment [3] (first compound 2.53 µM) it was 1.1; in experiment [3] (first compound 8 µM), 0.851; in experiment [4] (first compound 0.5 µM) it was 0.381; in experiment [4] (first compound 1.581 µM), 0.36; in experiment [4] (first compound 5 µM), 0.356. In addition, the relative viability in experiment [4] (first compound 15.81 µM) came out at 0.34; in experiment [4] (first compound 50 µM), 0.174.

Consider SW 900, for which the relative viability is 0.164 in experiment [2] (first compound 0.08 µM); 0.195 in experiment [2] (first compound 0.253 µM); 0.175 in experiment [2] (first compound 0.8 µM); 0.165 in experiment [2] (first compound 2.53 µM); 0.152 in experiment [2] (first compound 8 µM); 0.46 in experiment [3] (first compound 0.08 µM). The relative viability in experiment [3] (first compound 0.253 µM) stood at 0.505; in experiment [3] (first compound 0.8 µM), 0.506; in experiment [3] (first compound 2.53 µM) it was 0.477; in experiment [3] (first compound 8 µM), 0.282; in experiment [4] (first compound 0.5 µM), 0.72; in experiment [4] (first compound 5 µM), 0.586. Besides, the relative viability in experiment [4] (first compound 15.81 µM) is 0.46; in experiment [4] (first compound 50 µM) it was 0.207.

Regarding NCI-H1395, the relative viability in experiment [2] (first compound 0.08 µM) is 0.784; in experiment [2] (first compound 0.253 µM), 0.603; in experiment [2] (first compound 0.8 µM) it was 0.731; in experiment [2] (first compound 2.53 µM) it was 0.684; in experiment [2] (first compound 8 µM), 0.482; in experiment [3] (first compound 0.08 µM), 0.768. The relative viability in experiment [3] (first compound 0.253 µM) was determined as 0.744; in experiment [3] (first compound 0.8 µM) it was 0.854; in experiment [3] (first compound 2.53 µM), 0.976; in experiment [3] (first compound 8 µM), 0.594; in experiment [4] (first compound 0.5 µM), 0.647; in experiment [4] (first compound 1.581 µM), 0.43. For the same cell line, the relative viability in experiment [4] (first compound 5 µM) is 0.686; in experiment [4] (first compound 15.81 µM), 0.567; in experiment [4] (first compound 50 µM), 0.355.

NCI-H522: the relative viability in experiment [2] (first compound 0.08 µM) is 1.15; in experiment [2] (first compound 0.253 µM) it was 1.31; in experiment [2] (first compound 0.8 µM), 0.92; in experiment [2] (first compound 2.53 µM) it was 1.06; in experiment [2] (first compound 8 µM), 0.97; in experiment [3] (first compound 0.08 µM), 0.762. The relative viability in experiment [3] (first compound 0.253 µM) worked out at 0.916; in experiment [3] (first compound 0.8 µM) it was 1.01; in experiment [3] (first compound 2.53 µM) it was 1.08; in experiment [3] (first compound 8 µM) it was 0.825; in experiment [4] (first compound 0.5 µM), 0.69; in experiment [4] (first compound 1.581 µM), 0.645. In addition, the relative viability turned out to be 0.693 in experiment [4] (first compound 5 µM), 0.689 in experiment [4] (first compound 15.81 µM) and 0.63 in experiment [4] (first compound 50 µM).

In the case of EBC-1, the relative viability in experiment [1] (first compound 0.08 µM) was found to be 0.197; in experiment [1] (first compound 0.253 µM) it was 0.189; in experiment [1] (first compound 0.8 µM), 0.184; in experiment [1] (first compound 2.53 µM), 0.186; in experiment [1] (first compound 8 µM), 0.114.
